Laboratory results published in publication PMC10377566 (European journal of medicinal chemistry, 2022).
Values after ≈ are worked out from the molar mass of the structure shown. Values joined by “and” are separate entries in the source; they are usually repeats but may differ in a detail not shown here. Equal entries are not always repeated.

Tests used:
[1] = Metabolic stability in mouse liver microsomes; type: in vitro ADME, mouse (CD-1 Mouse)
[2] = test system: VIM-expressing sarcoma cell lines HT-1080, RD, GCT; type: cell-based; details: for improvement in potency: VIM-expressing sarcoma cell lines, compared to FiVe1
HT-1080 cells = assay: Cell proliferation assay; type: cell-based; details: for improvement in selectivity: cell type selectivity (vs MCF-7), compared to FiVe1; for SI (HT-1080 vs MCF-7): selectivity index, ratio of IC50 values HT-1080 and MCF-7
[3] = Pharmacokinetic study in mouse; type: in vivo
[4] = test system: vimentin (VIM) Ser56 phosphorylation; assay: Western blot of VIM Ser56 phosphorylation in HT-1080, RD and GCT sarcoma cells; type: cell-based; details: 24 h, HT-1080, RD and GCT cells
[5] = HPLC-based kinetic solubility in DPBS; type: physicochemical; details: for improvement in solubility: compared to FiVe1, DPBS
panel of ~100 kinases = details: concentrations up to 10 μM; cited from earlier work
[6] = test system: VIM-expressing mesenchymal cancer cell lines; details: anti-proliferative effects compared with cells that lack VIM expression; cited from earlier work
[7] = Metabolite identification in incubations with mouse hepatocytes; type: in vitro ADME; details: FiVe1 incubated with mouse hepatocytes, LC-MS/MS, peak area λ = 252–420 nm

3-(3-chloro-5-(4-(8-chlorocinnolin-4-yl)piperazin-1-yl)phenoxy)propane-1,2-diol [Compound 11e]
T1/2 ([1]; mouse liver microsomes): 42.7 min | Remaining (T= 60 min) ([1]; mouse liver microsomes, 60 min): 35.7% | CLint(mic) ([1]; mouse, microsomes): 32.5 µL/min/mg

Clc1cc(Cl)cc(N2CCN(c3cnnc4c(Cl)cccc34)CC2)c1 [Compound 4a, 8-chloro-4-(4-(3,5-dichlorophenyl)piperazin-1-yl)cinnoline]
improvement in potency [2]: ~ 4 fold

N#Cc1cc(Cl)cc(N2CCN(c3cnnc4c(Cl)cccc34)CC2)c1 [Compound 4b, 3-chloro-5-(4-(8-chlorocinnolin-4-yl)piperazin-1-yl)benzonitrile]
improvement in potency [2]: ~ 4 fold

COc1cc(OC)cc(N2CCN(c3cnnc4c(Cl)cccc34)CC2)c1 [Compound 4c, 8-chloro-4-(4-(3,5-dimethoxyphenyl)piperazin-1-yl)cinnoline]
improvement in potency [2]: > 20 fold | improvement in selectivity (HT-1080 cells): > 15 fold

COc1cccc(N2CCN(c3cnnc4c(Cl)cccc34)CC2)c1 [Compound 4d, 8-chloro-4-(4-(3-methoxyphenyl)piperazin-1-yl)cinnoline]
improvement in potency [2]: > 2 fold | improvement in selectivity (HT-1080 cells): > 2 fold

COc1cc(Cl)cc(N2CCN(c3cnnc4c(Cl)cccc34)CC2)c1 [Compound 4e, 8-chloro-4-(4-(3-chloro-5-methoxyphenyl)piperazin-1-yl)cinnoline]
Tlast ([3]; ip 1 mg/kg): 4 h | improvement in bioavailability ([3]; oral, compared to FiVe1, assuming dose proportional absorption): ~ 4 fold | VIM Ser56 phosphorylation (Western immunoblot) [4]: induce VIM Ser56 phosphorylation at 10-fold lower concentration (100 nM) | improvement in potency [2]: > 20 fold | improvement in selectivity (HT-1080 cells): > 10 fold and 19 fold and > 15 fold

Clc1cc(N2CCCC2)cc(N2CCN(c3cnnc4c(Cl)cccc34)CC2)c1 [Compound 4f, 8-chloro-4-(4-(3-chloro-5-(pyrrolidin-1-yl)phenyl)piperazin-1-yl)cinnoline]
inhibition of mesenchymal cancer cell growth (in words) [2]: total loss in activity

Oc1cc(Cl)cc(N2CCN(c3cnnc4c(Cl)cccc34)CC2)c1 [Compound 4g, 3-chloro-5-(4-(8-chlorocinnolin-4-yl)piperazin-1-yl)phenol]
improvement in potency [2]: > 20 fold | improvement in selectivity (HT-1080 cells): > 10 fold

Nc1cc(Cl)cc(N2CCN(c3cnnc4c(Cl)cccc34)CC2)c1 [Compound 4i, 3-chloro-5-(4-(8-chlorocinnolin-4-yl)piperazin-1-yl)aniline]
improvement in potency [2]: ~ 2 fold | improvement in selectivity (HT-1080 cells): ~ 2 fold

CC(=O)Nc1cc(Cl)cc(N2CCN(c3cnnc4c(Cl)cccc34)CC2)c1 [Compound 4j, N-(3-chloro-5-(4-(8-chlorocinnolin-4-yl)piperazin-1-yl)phenyl)acetamide]
IC50 ([2]; Homo sapiens, HT-1080, read-out: IC50 values): ~10 µM

C[C@H]1CN(c2cnnc3c(Cl)cccc23)CCN1c1cc(Cl)cc(Cl)c1 [Compound 7a, (S)-8-chloro-4-(4-(3,5-dichlorophenyl)-3-methylpiperazin-1-yl)cinnoline]
loss in antiproliferative potency ([2]; compared with its analog 4a): ~ 2 fold

Clc1cccc(N2CCN(c3ccnc4c(Cl)cccc34)CC2)c1 [Compound 10d, 8-chloro-4-(4-(3-chlorophenyl)piperazin-1-yl)quinoline]
VIM Ser56 phosphorylation (Western immunoblot) [4]: inactive

NCCOc1cc(Cl)cc(N2CCN(c3cnnc4c(Cl)cccc34)CC2)c1 [Compound 11a, 2-(3-chloro-5-(4-(8-chlorocinnolin-4-yl)piperazin-1-yl)phenoxy)ethan-1-amine]
SI (HT-1080 vs MCF-7) (HT-1080 cells): >5 | solubility at 16 h ([5]; DPBS, pH 7.4): 68 µM (≈ 28.4 µg/mL) | improvement in solubility [5]: > 40 fold

CN(C)CCOc1cc(Cl)cc(N2CCN(c3cnnc4c(Cl)cccc34)CC2)c1 [Compound 11b, 2-(3-chloro-5-(4-(8-chlorocinnolin-4-yl)piperazin-1-yl)phenoxy)-N,N-dimethylethan-1-amine]
improvement in solubility [5]: > 40 fold

CN(C)CCCOc1cc(Cl)cc(N2CCN(c3cnnc4c(Cl)cccc34)CC2)c1 [Compound 11c, 3-(3-chloro-5-(4-(8-chlorocinnolin-4-yl)piperazin-1-yl)phenoxy)-N,N-dimethylpropan-1-amine]
improvement in solubility [5]: > 40 fold

OCCOc1cc(Cl)cc(N2CCN(c3cnnc4c(Cl)cccc34)CC2)c1 [Compound 11d, 2-(3-chloro-5-(4-(8-chlorocinnolin-4-yl)piperazin-1-yl)phenoxy)ethan-1-ol]
improvement in potency [2]: > 3 fold | SI (HT-1080 vs MCF-7) (HT-1080 cells): >40

COCCOc1cc(Cl)cc(N2CCN(c3cnnc4c(Cl)cccc34)CC2)c1 [Compound 11f, 8-chloro-4-(4-(3-chloro-5-(2-methoxyethoxy)phenyl)piperazin-1-yl)cinnoline]
SI (HT-1080 vs MCF-7) (HT-1080 cells): >12

COC(COc1cc(Cl)cc(N2CCN(c3cnnc4c(Cl)cccc34)CC2)c1)OC [Compound 11g, 8-chloro-4-(4-(3-chloro-5-(2,2-dimethoxyethoxy)phenyl)piperazin-1-yl)cinnoline]
IC50 (HT-1080 cells; Homo sapiens, HT-1080, 72 h, read-out: IC50 HT-1080): 13.6 ± 1.18 µM | SI (HT-1080 vs MCF-7) (HT-1080 cells): >2

COC(=O)CCOc1cc(Cl)cc(N2CCN(c3cnnc4c(Cl)cccc34)CC2)c1 [Compound 11j, methyl 3-(3-chloro-5-(4-(8-chlorocinnolin-4-yl)piperazin-1-yl)phenoxy)propanoate]
SI (HT-1080 vs MCF-7) (HT-1080 cells): >20

O=C(O)CCOc1cc(Cl)cc(N2CCN(c3cnnc4c(Cl)cccc34)CC2)c1 [Compound 11k, 3-(3-chloro-5-(4-(8-chlorocinnolin-4-yl)piperazin-1-yl)phenoxy)propanoic acid]
SI (HT-1080 vs MCF-7) (HT-1080 cells): >13

Clc1cccc(N2CCN(c3cnnc4c(Cl)cccc34)CC2)c1 [FiVe1]
Tlast ([3]; po 25 mg/kg): 18 h | VIM Ser56 phosphorylation (Western immunoblot) [4]: induced Ser56 phosphorylation at 1 μM but not at 100 nM | kinase inhibition (panel of ~100 kinases): not found to be an inhibitor of any cell cycle or cytokinesis-related kinase | cell-based therapeutic index [6]: > 10 | % Peak Area [7]: 6%
